# According to patent US9163032B2, “Esters of DCPLA and methods of treatment using the same” (Blanchette Rockefeller Neurosciences Institute, priority 2011, dated 2015):
# Key:
# [1] = system: cultured primary rat hippocampal neurons; assay: Neuroprotection against ASPD induced toxicity, MTT assay, primary neurons; assay type: cell-based
# Protocol: Viability of cells was measured by MTT assay. MTT (i.e., 3-(4,5-dimethylthiazol-2-yl)-2,5-diphenyltetrazolium bromide) is a tetrazolium salt that is cleaved to formazan by the succinate dehydrogenase, which is only active in viable cells. After solubilization of the formazan, the amount of dye can be quantified with a microplate reader at 570 nm along with a reference of 630 nm. For the MTT assay, 5×10^4 primary rat hippocampal neurons from 18-day-old embryonic Sprague-Dawley rat brains or SH-SY5Y cells were plated on each well of 24-well plates coated with poly-D-lysine. After treatment, the cells were washed with 1× PBS and were incubated with 200 μl of 1 mg/ml MTT solution (Sigma, USA) at 37° C. for 2 hr. Then the MTT-solution was removed and the cells were lysed with 200 μl isopropanol containing 0.04 M HCl and […] for 10 min. Finally, the reading was taken at 570 nm and 630 nm. All the samples were done in triplicate and the data were represented as the percentage of control.
# Bryostatin 1, DCPLA, and DCPLA-ME were tested against ASPD-induced cytotoxicity to determine their neuroprotective efficacy.
# [2] = system: MAP-2; assay: MAP-2 expression in primary hippocampal neurons (immunofluorescence); assay type: cell-based, rat; conditions: 20 hr
# Protocol: (§1) Cells were grown in two chambered slides (Nunc, USA) at low density. For immunofluorescence staining, the cells were washed with PBS (pH 7.4) and fixed with 4% paraformaldehyde for 4 min. Following fixation, the cells were blocked and permeabilized with 5% serum and 0.3% Triton X-100 in 1×PBS for 30 min. Cells were washed three times with 1×PBS and incubated with primary antibodies for 1 hr at 1:100 dilution. After the incubation, the slides were again washed three times in 1×PBS and were incubated with the FITC anti-mouse IgG and Rhodamine anti-rabbit IgG for 1 hr at 1:400 dilution. The cells were further washed and stained with DAPI (4′,6-diamidino-2′-phenylindole, dihydrochloride) (Thermo Scientific, USA) to stain the nucleus. Finally, the slides were washed and mounted in Pro Long Gold antifade mounting solution (Invitrogen, USA) and were viewed under a LSM 710 Meta confocal microscope (Zeiss) at 350 nm, 490 nm, and 540 nm excitation and 470 nm, 525 nm, and 625 nm emission for DAPI, FITC, and Rhodamine respectively. Six individual fields at 63× oil lens magnification were analyzed for the mean fluorescence intensity (MFI) in each channel.
# Primary neurons, treated and untreated, were immunostained for MAP-2, synaptophysin, and PSD-95 to determine the synaptic integrity. […]
# [3] = system: PKC-ε; assay: PKC-ε translocation to membrane in SH-SY5Y neuroblastoma cells (Western Blot); assay type: cell-based, human
# Protocol: (§2) Cells were harvested in homogenizing buffer containing 10 mM Tris-Cl (pH 7.4), 1 mM PMSF (phenylmethylsulfonyl fluoride), 1 mM EGTA, 1 mM EDTA, 50 mM NaF, and 20 μM leupeptin, and were lysed by sonication. The homogenate was centrifuged at 100,000×g for 15 min at 4° C. to obtain the cytosolic fraction (supernatant) and membrane (pellet). The pellet was resuspended in the homogenizing buffer by sonication. For whole cell protein isolation from primary neurons, the homogenizing buffer contained 1% Triton X-100. Protein concentration was measured using the Coomassie Plus (Bradford) Protein Assay kit (Pierce, USA). Following quantification, 20 μg of protein from each sample was subjected to SDS-PAGE analysis in a 4-20% gradient Tris-Glycine gel (Invitrogen, USA). The separated protein was then transferred to a nitrocellulose membrane. The membrane was blocked with 5% BSA at room temperature for 15 min and was incubated with primary antibody overnight at 4° C. After the incubation, it was washed three times with TBS-T (Tris Buffered Saline-Tween 20) and further incubated with alkaline phosphatase conjugated secondary antibody (Jackson Immunoresearch Laboratories, USA) at 1:10000 dilution for 45 min. The membrane was finally washed three times with TBS-T and developed using the 1-step NBT-BCIP substrate (Pierce, USA). The blot was imaged in an ImageQuant RT-ECL (GE Life Sciences, Piscataway, N.J.) and densitometric quantification was performed using IMAL software (Blanchette Rockefeller Neurosciences Institute, Morgantown, W. Va.). For translocation assays, PKC activation was represented as the percentage of total protein in the membrane (membrane/cytosol+membrane).
# [4] = system: GSK-3β; assay: Phospho GSK-3β (Ser-9) Western Blot in ASPD treated primary neurons; assay type: cell-based, rat
# Protocol: Phospho GSK-3β expression was normalized against total GSK-3β expression. […] Data are represented as mean±SEM. (Student's t test *.p<0.05; and **, p<0.005 n=3).
# as §2, with “After the incubation, it was washed three times with TBS-T (Tris Buffered Saline-Tween 20) and further incubated with alkaline phosphatase conjugated secondary antibody (Jackson Immunoresearch Laboratories, USA) at 1:10000 dilution for 45 min. The membrane was finally washed three times with TBS-T and developed using the 1-step NBT-BCIP substrate (Pierce, USA).” left out, “For translocation assays, PKC activation was represented as the percentage of total protein in the membrane (membrane/cytosol+membrane).” left out
# [5] = system: PKC-ε mRNA; assay: PKC-ε mRNA by RT-PCR in primary neurons; assay type: cell-based, rat; conditions: primary neurons treated with ASPD and/or DCPLA-ME, normalized to β-actin
# Protocol: RNA was isolated from the cells using Trizol reagent (Invitrogen, USA) following the manufacturer's protocol. Briefly, 5 μg of the total RNA was reverse transcribed using oligo (dT) and Superscript III (Invitrogen, USA) at 50° C. for 1 hr. Two μl of the cDNA product was amplified using primers for PKC-ε (Forward Primer—[…], Reverse primer—[…] (Origene, Rockville, Md.)) and β-actin (Promega, USA) for 30 cycles following standard PCR protocols using a 55° C. annealing temperature. The PCR amplicons were analyzed in an E-Gel (Invitrogen, USA). The gel was imaged using a Fuji Image gel scanner (FLA-9000, Fuji Film) and densitometric quantification was performed using IMAL software (Blanchette Rockefeller Neurosciences Institute, Morgantown, W. Va.). Data were represented as normalized ratio of PKC-ε OD (Optical Density) against β-actin OD for three independent experiments.
# Primary neurons were treated with ASPD and/or DCPLA-ME. PKC-ε mRNA was quantified by RT-PCR as described above. RNA prepared from control and treated cultured primary rat hippocampal neurons were isolated and reverse transcribed. Individual cDNA was amplified for PKC-ε and β-actin. PKC-ε expression was normalized to β-actin.
# [6] = system: PSD-95; assay: PSD-95 expression in primary hippocampal neurons (immunofluorescence); assay type: cell-based, rat; conditions: 20 hr
# Protocol: as §1
# To estimate the synaptic damage caused by the ASPDs on primary hippocampal neurons, the expression of synaptophysin (a presynaptic marker) and PSD-95 (a postsynaptic marker) was measured by immunofluorescence staining. […] Following a 20 hr incubation period, the cells were stained for nucleus, PSD-95, and synaptophysin. Expression levels were calculated as the change of percentage in mean fluorescence intensity compared to untreated cells.
# Primary neurons, treated and untreated, were immunostained for MAP-2, synaptophysin, and PSD-95 to determine the synaptic integrity. […] Following a 20 hr incubation period, the cells were stained for MAP-2, PSD-95, and synaptophysin as described above.
Compound,"more viable than Bryostatin 1-treated cells ([1]; 50 nM ASPD, DCPLA-ME 100 nM vs Bryostatin 1 0.27 nM) [%]","more viable than DCPLA-treated cells ([1]; 50 nM ASPD, DCPLA-ME 100 nM vs DCPLA 10 μM) [%]",MAP-2 mean fluorescence intensity ([2]; 50 nM ASPD + 100 nM DCPLA-ME),"PKC-ε translocation in ASPD-treated cells ([3]; ASPD + DCPLA-ME, FIG. 8D)",phosphorylation of the Ser-9 residue of GSK-3β ([4]; ASPD (50 nM) + DCPLA-ME (100 nM)),PKC-ε transcript levels [5],PSD-95 mean fluorescence intensity ([6]; 50 nM ASPD + 100 nM DCPLA-ME),"viability of primary neurons ([1]; 50 nM ASPD alone, 20 hr) [%]",MAP-2 mean fluorescence intensity ([2]; 50 nM ASPD),reduction of PKC-ε membrane translocation ([3]; ASPD 50 nM) [%],"PKC-ε membrane translocation ([3]; ASPD 50 nM, relative to control) [%]",GSK-3β activation state ([4]; ASPD 50 nM),PSD-95 mean fluorescence intensity ([6]; 50 nM ASPD),decrease of PSD-95 expression ([6]; 50 nM ASPD) [%]
"CCCCCC1CC1CC1CC1CCCCCCCC(=O)OC (stereo not drawn) [DCPLA-ME, DCPLA methyl ester]",16,8,68.87±2.0 % of control,restored PKC-ε translocation to normal,restored phosphorylation of the Ser-9 residue of GSK-3β to normal levels,increased PKC-ε transcript levels,99.2±11.3 % of control,,,,,,,
"ASPD: Amylospheroids from Aβ1-42, 100 kDa filter retentate, containing 39 monomers on average",,,,,,did not change PKC-ε mRNA significantly,,57.6±1.6,40.7±6.2 % of control,46,69.98±3.27,activated GSK-3β,67.63±7.24 % of control,42
